# Test results: patent publication US20140004530A1, “METHOD FOR THE EVALUATION OF COMPOUND-TARGET INTERACTIONS ACROSS SPECIES” (CELLZOME GMBH, priority 2010, published 2014)
# Experiments:
# [1] = molecular target: T1, PIK3Cg (PI3Kγ) (Homo sapiens, UniProt P48736); test: Competition binding to affinity matrix in mixed human/mouse cell lysate, quantitative MS of species-specific peptides; conditions: for IC50: HL-60 + RAW 264.7 mixed lysate
# T1 construct: Cell lysates from a human (HL60) and a mouse cell line (Raw 264.7) were prepared; endogenous in cells; host or cells: HL60
# T1 sequence (P48736 whole entry): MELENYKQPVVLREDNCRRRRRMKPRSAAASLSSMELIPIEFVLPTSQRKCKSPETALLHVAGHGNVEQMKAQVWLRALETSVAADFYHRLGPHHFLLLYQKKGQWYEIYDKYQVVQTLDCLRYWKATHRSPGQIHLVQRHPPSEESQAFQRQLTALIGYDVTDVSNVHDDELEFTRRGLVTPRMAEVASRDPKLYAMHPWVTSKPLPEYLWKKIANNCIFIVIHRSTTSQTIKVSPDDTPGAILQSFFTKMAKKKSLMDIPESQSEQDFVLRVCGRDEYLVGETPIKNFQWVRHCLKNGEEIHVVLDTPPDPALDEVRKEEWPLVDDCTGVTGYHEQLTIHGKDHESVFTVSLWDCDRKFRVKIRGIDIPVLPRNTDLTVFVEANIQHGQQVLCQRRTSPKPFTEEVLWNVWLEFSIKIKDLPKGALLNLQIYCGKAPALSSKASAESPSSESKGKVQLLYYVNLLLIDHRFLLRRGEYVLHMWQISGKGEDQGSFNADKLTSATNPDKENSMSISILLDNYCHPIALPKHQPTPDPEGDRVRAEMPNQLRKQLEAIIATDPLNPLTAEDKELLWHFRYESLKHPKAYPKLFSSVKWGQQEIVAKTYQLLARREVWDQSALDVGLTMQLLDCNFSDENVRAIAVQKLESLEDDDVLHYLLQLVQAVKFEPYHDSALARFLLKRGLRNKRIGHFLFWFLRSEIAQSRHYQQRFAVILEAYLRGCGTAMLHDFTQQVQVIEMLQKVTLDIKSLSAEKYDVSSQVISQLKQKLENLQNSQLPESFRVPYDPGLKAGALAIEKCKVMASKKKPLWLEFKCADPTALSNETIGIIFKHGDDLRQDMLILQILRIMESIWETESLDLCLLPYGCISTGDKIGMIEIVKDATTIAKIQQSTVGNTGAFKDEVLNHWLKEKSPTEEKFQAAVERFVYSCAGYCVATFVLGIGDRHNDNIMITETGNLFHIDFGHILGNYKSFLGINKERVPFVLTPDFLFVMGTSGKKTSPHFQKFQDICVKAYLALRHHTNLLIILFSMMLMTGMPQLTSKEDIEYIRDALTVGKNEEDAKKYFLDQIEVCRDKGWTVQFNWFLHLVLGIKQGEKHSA
# Description: (§1) Cell lysates from a human (HL60) and a mouse cell line (Raw 264.7) were prepared and subsequently mixed at a 1:1 ratio. Compound 1 was added at various concentrations (3 μM, 0.75 μM, 0.047 μM, 0.012 μM, plus DMSO solvent control) to aliquots of this mixed cell lysate and allowed to bind to the proteins in the lysate. Subsequently, the affinity matrix (beads with immobilized ligands) was added to each aliquot to capture proteins that were not interacting with compound 1. The generation of the affinity matrix (beads with immobilized ligands) was described in WO 2009/098021.
# (§2) After the incubation time of 60 minutes the beads with captured proteins were separated from the lysate and bead bound proteins were eluted in SDS sample buffer and subsequently separated by SDS-Polyacrylamide gel electrophoresis. Electrophoresis was stopped after 20 minutes and the gel was stained with colloidal Coomassie. The stained area of each gel lane was cut out and subjected to in-gel proteolytic digestion with trypsin. Peptides originating from the different aliquots treated with compound 1 and the DMSO solvent control were labeled with isobaric tagging reagents (Tandem mass tag (TMT®) reagents, Thermofisher). The TMT® reagents are a set of multiplexed, amine-specific, stable isotope reagents that can label peptides in up to six different biological samples enabling simultaneous identification and quantitation of peptides. The combined samples were analyzed with a nano-flow liquid chromatography system coupled online to a tandem mass spectrometer (LC-MS/MS) experiment followed by reporter ion quantitation in the MS/MS spectra (Ross et al., 2004. Mol. Cell. Proteomics 3(12):1154-1169; Dayon et al., 2008. Anal. Chem. 80(8):2921-2931; Thompson et al., 2003. Anal. Chem. 75(8):1895-1904). Further experimental protocols can be found in WO2006/134056 and a previous publication (Bantscheff et al., 2007. Nature Biotechnology 25, 1035-1044).
# (§3) Cells were homogenized in a Potter S homogenizer in lysis buffer: 50 mM Tris-HCl, 0.8% NP40, 5% glycerol, 150 mM NaCl, 1.5 mM MgCl2, 25 mM NaF, 1 mM sodium vanadate, 1 mM DTT, pH 7.5. One complete EDTA-free tablet (protease inhibitor cocktail, Roche Diagnostics, 1 873 580) per 25 ml buffer was added. The material was dounced 20 times using a mechanized POTTER S, transferred to 50 ml falcon tubes, incubated for 30 minutes rotating at 4° C. and spun down for 10 minutes at 20,000×g at 4° C. (10,000 rpm in Sorvall SLA600, precooled). The supernatant was transferred to an ultracentrifuge (UZ)-polycarbonate tube (Beckmann, 355654) and spun for 1 hour at 145.000×g at 4° C. (40.000 rpm in Ti50.2, pre-cooled). The supernatant was transferred again to a fresh 50 ml falcon tube, the protein concentration was determined by a Bradford assay (BioRad) and samples containing 5 mg of protein per aliquot were prepared. The samples were immediately used for experiments or frozen in liquid nitrogen and stored frozen at −80° C. Cell extracts from human HL60 cells and mouse raw 264.7 cells were mixed in a one to one (1:1) ratio.
# (§4) Sepharose®-beads with the immobilized ligands (35 μl beads per aliquot) were equilibrated in lysis buffer and incubated with a cell lysate sample containing 5 mg of protein on an end-over-end shaker (Roto Shake Genie, Scientific Industries Inc.) for 60 minutes at 4° C. Beads were collected, transferred to Mobicol-columns (MoBiTech 10055) and washed with 10 ml lysis buffer containing 0.4% NP40 detergent, followed by 5 ml lysis buffer containing 0.2% detergent. To elute bound proteins, 60 μl 2× SDS sample buffer was added to the column. The column was incubated for 30 minutes at 4° C. and the eluate was transferred to a siliconized microfuge tube by centrifugation. Proteins were then alkylated with 108 mM iodoacetamid. Proteins were then separated by SDS-Polyacrylamide electrophoresis (SDS-PAGE). Suitable gel bands were cut out and subjected to in-gel proteolytic digestion with trypsin. […]
# [2] = molecular target: T2, PIK3C3 (Homo sapiens, UniProt Q8NEB9); test: as above; conditions: Experiment 1 (human/mouse 1); HL-60 + RAW 264.7 mixed lysate
# T2 construct: Cell lysates from a human (HL60) and a mouse cell line (Raw 264.7) were prepared; endogenous in cells; host or cells: HL60
# Description: as §1, §2, §3, §4
# [3] = molecular target: T3, PIK3Cb (PI3Kbeta) (Mus musculus, UniProt Q8BTI9); test: as above; conditions: HL-60 + RAW 264.7 mixed lysate
# T3 construct: Cell lysates from a human (HL60) and a mouse cell line (Raw 264.7) were prepared; endogenous in cells; host or cells: RAW264.7
# Description: as §1, §2, §3, §4
# [4] = molecular target: T4, PIK3Cd (PI3Kδ) (Homo sapiens, UniProt O00329); test: as above; conditions: for IC50: HL-60 + RAW 264.7 mixed lysate
# T4 construct: Cell lysates from a human (HL60) and a mouse cell line (Raw 264.7) were prepared; endogenous in cells; host or cells: HL60
# T4 sequence (O00329 whole entry): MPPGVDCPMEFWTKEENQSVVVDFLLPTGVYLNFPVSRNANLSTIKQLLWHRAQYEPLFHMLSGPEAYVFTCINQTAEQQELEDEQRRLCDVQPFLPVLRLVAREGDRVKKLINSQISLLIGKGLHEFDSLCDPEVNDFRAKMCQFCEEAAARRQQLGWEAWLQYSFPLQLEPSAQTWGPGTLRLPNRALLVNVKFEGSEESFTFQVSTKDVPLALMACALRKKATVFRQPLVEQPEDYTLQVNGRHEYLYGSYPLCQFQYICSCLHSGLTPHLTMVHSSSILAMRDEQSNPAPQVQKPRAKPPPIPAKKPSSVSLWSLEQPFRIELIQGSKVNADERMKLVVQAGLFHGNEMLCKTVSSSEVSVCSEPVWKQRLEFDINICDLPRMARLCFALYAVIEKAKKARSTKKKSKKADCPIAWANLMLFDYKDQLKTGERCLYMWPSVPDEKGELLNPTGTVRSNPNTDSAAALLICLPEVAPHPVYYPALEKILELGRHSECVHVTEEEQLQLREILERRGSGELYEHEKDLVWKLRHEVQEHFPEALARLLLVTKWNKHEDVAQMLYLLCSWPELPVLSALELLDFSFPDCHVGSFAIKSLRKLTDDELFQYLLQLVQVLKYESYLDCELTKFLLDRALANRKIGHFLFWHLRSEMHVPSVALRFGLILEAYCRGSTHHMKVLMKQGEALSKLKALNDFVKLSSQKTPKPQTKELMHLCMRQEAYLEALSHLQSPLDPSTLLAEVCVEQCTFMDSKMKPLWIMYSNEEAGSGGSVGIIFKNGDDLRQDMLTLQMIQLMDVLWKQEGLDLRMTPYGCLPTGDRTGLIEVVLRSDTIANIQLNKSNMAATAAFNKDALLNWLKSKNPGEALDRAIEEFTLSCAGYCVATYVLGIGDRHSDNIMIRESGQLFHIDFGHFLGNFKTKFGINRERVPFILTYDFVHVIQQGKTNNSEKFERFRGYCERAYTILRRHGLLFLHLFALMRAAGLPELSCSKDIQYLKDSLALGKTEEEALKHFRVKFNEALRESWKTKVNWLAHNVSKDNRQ
# T4 sequence (P27986 whole entry partner): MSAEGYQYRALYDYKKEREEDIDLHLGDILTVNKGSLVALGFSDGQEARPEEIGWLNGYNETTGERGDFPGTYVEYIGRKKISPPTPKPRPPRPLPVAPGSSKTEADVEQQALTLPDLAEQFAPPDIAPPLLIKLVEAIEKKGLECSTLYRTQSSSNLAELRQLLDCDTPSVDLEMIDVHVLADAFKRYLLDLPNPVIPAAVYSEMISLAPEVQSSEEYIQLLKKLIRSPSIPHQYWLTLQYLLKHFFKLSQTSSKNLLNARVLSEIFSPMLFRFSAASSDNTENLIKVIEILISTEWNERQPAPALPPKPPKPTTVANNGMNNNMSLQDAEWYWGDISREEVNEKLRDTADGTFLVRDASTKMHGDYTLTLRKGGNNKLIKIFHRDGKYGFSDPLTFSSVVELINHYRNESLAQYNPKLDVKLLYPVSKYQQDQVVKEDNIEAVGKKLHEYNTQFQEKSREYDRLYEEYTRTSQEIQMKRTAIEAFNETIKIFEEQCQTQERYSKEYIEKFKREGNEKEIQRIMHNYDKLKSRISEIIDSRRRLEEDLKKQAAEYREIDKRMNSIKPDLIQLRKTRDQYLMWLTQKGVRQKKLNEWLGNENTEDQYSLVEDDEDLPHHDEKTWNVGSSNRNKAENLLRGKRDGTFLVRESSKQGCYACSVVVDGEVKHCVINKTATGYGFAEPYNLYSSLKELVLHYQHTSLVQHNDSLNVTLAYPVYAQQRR
# Description: as §1, §2, §3, §4
# [5] = molecular target: T5, PIK3Cg (PI3Kγ) (Mus musculus, UniProt Q9JHG7); test: as above; conditions: for IC50: HL-60 + RAW 264.7 mixed lysate
# T5 construct: Cell lysates from a human (HL60) and a mouse cell line (Raw 264.7) were prepared; endogenous in cells; host or cells: RAW264.7
# Description: as §1, §2, §3, §4
# [6] = molecular target: T6, PIK3Ca (Homo sapiens, UniProt P42336); test: as above; conditions: for IC50: HL-60 + RAW 264.7 mixed lysate
# T6 construct: Cell lysates from a human (HL60) and a mouse cell line (Raw 264.7) were prepared; endogenous in cells; host or cells: HL60
# T6 sequence (P42336 whole entry): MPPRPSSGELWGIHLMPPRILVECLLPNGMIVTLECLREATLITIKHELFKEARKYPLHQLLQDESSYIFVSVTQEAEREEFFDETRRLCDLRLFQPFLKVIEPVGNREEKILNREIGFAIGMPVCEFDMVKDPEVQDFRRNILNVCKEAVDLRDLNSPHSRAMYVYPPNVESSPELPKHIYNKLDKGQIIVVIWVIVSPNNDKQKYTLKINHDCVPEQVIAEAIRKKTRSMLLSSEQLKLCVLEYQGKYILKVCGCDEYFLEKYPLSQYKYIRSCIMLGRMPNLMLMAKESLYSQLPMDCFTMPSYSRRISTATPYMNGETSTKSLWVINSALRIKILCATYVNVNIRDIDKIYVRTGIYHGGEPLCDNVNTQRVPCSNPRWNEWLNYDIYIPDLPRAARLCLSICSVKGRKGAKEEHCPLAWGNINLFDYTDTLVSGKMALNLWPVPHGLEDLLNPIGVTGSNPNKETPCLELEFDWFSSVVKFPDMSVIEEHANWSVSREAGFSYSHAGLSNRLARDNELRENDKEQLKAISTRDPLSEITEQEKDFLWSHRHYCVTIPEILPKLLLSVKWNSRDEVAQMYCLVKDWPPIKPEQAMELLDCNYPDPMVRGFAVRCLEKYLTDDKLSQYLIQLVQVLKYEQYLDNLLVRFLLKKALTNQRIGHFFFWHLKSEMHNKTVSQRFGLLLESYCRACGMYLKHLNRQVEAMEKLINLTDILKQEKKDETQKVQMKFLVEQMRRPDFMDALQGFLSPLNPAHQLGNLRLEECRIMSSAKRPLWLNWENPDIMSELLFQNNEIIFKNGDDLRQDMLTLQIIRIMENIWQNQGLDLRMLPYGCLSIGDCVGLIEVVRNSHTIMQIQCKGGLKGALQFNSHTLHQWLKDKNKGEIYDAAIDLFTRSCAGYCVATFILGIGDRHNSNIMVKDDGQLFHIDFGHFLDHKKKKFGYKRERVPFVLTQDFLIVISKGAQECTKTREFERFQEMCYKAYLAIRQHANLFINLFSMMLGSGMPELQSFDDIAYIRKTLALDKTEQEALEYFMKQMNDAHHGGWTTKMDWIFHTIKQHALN
# T6 sequence (P27986 whole entry partner): as the sequence (P27986 whole entry partner) above
# Description: as §1, §2, §3, §4
# [7] = molecular target: T7, PIK4Cb (Homo sapiens, UniProt Q9UBF8); test: as above; conditions: HL-60 + RAW 264.7 mixed lysate
# T7 construct: Cell lysates from a human (HL60) and a mouse cell line (Raw 264.7) were prepared; endogenous in cells; host or cells: HL60
# Description: as §1, §2, §3, §4
# [8] = molecular target: T8, PIK3Cb (PI3Kbeta) (Homo sapiens, UniProt P42338); test: as above; conditions: for IC50: HL-60 + RAW 264.7 mixed lysate
# T8 construct: Cell lysates from a human (HL60) and a mouse cell line (Raw 264.7) were prepared; endogenous in cells; host or cells: HL60
# T8 sequence (P42338 whole entry): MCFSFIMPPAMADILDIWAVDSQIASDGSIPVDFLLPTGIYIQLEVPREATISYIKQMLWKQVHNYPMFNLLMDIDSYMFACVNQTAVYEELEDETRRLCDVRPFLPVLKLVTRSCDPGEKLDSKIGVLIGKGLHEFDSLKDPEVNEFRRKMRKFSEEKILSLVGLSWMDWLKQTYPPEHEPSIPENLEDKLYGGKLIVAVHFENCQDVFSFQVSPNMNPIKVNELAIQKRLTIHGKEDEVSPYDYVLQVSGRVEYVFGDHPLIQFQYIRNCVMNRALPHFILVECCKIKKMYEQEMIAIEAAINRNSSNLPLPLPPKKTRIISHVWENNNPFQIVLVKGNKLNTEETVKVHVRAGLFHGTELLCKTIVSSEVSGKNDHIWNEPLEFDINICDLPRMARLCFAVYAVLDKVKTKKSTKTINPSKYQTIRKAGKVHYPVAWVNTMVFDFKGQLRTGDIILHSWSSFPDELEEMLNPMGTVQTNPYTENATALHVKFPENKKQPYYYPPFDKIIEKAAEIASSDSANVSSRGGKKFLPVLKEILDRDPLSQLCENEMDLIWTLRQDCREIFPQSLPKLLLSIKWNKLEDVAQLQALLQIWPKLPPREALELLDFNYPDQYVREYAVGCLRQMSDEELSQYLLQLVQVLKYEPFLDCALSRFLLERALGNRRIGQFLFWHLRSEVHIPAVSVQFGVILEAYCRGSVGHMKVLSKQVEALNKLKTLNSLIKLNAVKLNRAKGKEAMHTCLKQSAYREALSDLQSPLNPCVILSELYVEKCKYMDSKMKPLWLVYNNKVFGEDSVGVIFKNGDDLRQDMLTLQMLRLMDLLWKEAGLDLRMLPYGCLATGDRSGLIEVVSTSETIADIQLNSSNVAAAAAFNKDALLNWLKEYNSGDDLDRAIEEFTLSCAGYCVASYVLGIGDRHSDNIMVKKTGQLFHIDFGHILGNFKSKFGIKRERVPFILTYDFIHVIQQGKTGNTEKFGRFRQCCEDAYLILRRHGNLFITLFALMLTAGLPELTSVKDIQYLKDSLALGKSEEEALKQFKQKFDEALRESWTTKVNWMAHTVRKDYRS
# T8 sequence (P27986 whole entry partner): as the sequence (P27986 whole entry partner) above
# Description: as §1, §2, §3, §4
# [9] = molecular target: T9, PIK4Ca (Homo sapiens, UniProt P42356); test: as above; conditions: HL-60 + RAW 264.7 mixed lysate
# T9 construct: Cell lysates from a human (HL60) and a mouse cell line (Raw 264.7) were prepared; endogenous in cells; host or cells: HL60
# Description: as §1, §2, §3, §4
# [10] = molecular target: T10, PIK3Cd (PI3Kδ) (Mus musculus, UniProt O35904); test: as above; conditions: HL-60 + RAW 264.7 mixed lysate
# T10 construct: Cell lysates from a human (HL60) and a mouse cell line (Raw 264.7) were prepared; endogenous in cells; host or cells: RAW264.7
# Description: as §1, §2, §3, §4
# [11] = molecular target: T11, PIK3R4 (Homo sapiens, UniProt Q99570); test: as above; conditions: Experiment 1 (human/mouse 1); HL-60 + RAW 264.7 mixed lysate
# T11 construct: Cell lysates from a human (HL60) and a mouse cell line (Raw 264.7) were prepared; endogenous in cells; host or cells: HL60
# Description: as §1, §2, §3, §4
# [12] = molecular target: T12, PI3Kγ (Mus musculus, UniProt Q9JHG7); test: Competition binding profile with the affinity matrix in mixed extracts of human and rodent cell lines; conditions: mixed extracts of human (Jurkat) and mouse RAW264.7 cells
# T12 construct: acquired in mixed extracts of human, mouse and rat cell lines; endogenous in cells
# Description: (§5) Since compound efficacy and toxicity are evaluated in laboratory animals, it is important to determine its potency and selectivity in the relevant species. In order to minimize inter-assay variation, we used a mass spectrometric targeted data acquisition approach (Savitski et al., 2010. J. Am. Soc. Mass. Spectrom. 21(10):1668-1679) based on species specific proteotypic peptides (FIG. 7) and mixed cell lysates. Competition binding profiles of compound 2 with the affinity matrix were acquired in mixed extracts of human, mouse and rat cell lines.
# (§6) Proteomics-based inhibitor profiling. Affinity profiling assays were performed as described previously ([…]). Derivatized sepharose® beads (35 μl beads per sample) were equilibrated in lysis buffer and incubated with 1 ml (5 mg protein) cell lysate, which had been preincubated with test compound or vehicle for 45 min, on an end-over-end shaker for 1 hour. Incubation was done at 4° C. for all compounds. Beads were transferred to disposable columns (MoBiTec), washed with lysis buffer containing 0.2% NP-40 and eluted with 50 μl 2× SDS sample buffer. Proteins were alkylated with […] iodoacetamide for 30 minutes, separated on 4-12% NuPAGE (Invitrogen), and stained with colloidal Coomassie.
# (§7) Sample preparation for mass spectrometry. Gels were cut into slices across the entire separation range and subjected to in-gel digestion. Peptide extracts were labeled with tandem mass tags (TMT®) (Thermo-Fisher Scientific) in 40 mM triethylammoniumbicarbonate (TEAB), pH 8.53. After quenching of the reaction with glycin labeled extracts were combined. For compound profiling experiments extracts from vehicle treated samples were labeled with TMT® reagent 131, and combined with extracts from compound-treated samples labeled with TMT® reagents 126-130, optionally fractionated using reversed phase chromatography at pH 12, dried and acidified prior to LC-MS/MS analysis.
# (§8) LC-MS/MS analysis. Samples were dried in vacuo and resuspended in 0.1% formic acid in water and aliquots of the sample were injected into a nano-LC system (Eksigent 1 D+) coupled to LTQ-Orbitrap mass spectrometers (Thermo-Finnigan). Peptides were separated on custom 50 cm×[…] (internal diameter) reversed-phase columns (Reprosil) at 40° C. Gradient elution was performed from 2% acetonitrile to 40% acetonitrile in 0.1% formic acid over 2-4 hours. […] Intact peptides were detected in the Orbitrap at 30.000 resolution. […]
# (§9) Creation of peptide inclusion lists. […] Subsequently for each human and mouse (or rat) protein that was of interest to the study the selected peptides were ranked according to the quality of the quantification and ease of identification inherent to these peptides (Savitski et al., 2010, J. Am. Soc. Mass. Spectrom. 21(10):1668-1679). […]
# (§10) Peptide and protein quantification. […]
# [13] = test system: PI3Kγ; test: as above; conditions: mixed extracts of human (Jurkat) and rat RBL-1 cells
# Description: as §5, §6, §7, §8, §9, §10
# [14] = molecular target: T13, PI3Kβ (Mus musculus, UniProt Q8BTI9); test: as above; conditions: mixed extracts of human (Jurkat) and mouse RAW264.7 cells
# T13 construct: acquired in mixed extracts of human, mouse and rat cell lines; endogenous in cells
# Description: as §5, §6, §7, §8, §9, §10
# [15] = molecular target: T14, PI3Kβ (Rattus norvegicus, UniProt Q9Z1L0); test: as above; conditions: mixed extracts of human (Jurkat) and rat RBL-1 cells
# T14 construct: acquired in mixed extracts of human, mouse and rat cell lines; endogenous in cells
# Description: as §5, §6, §7, §8, §9, §10
# [16] = potency ratio across species, average of two experiments
compound,measurement,setting,value
CC(C)(C)NS(=O)(=O)c1cncc(-c2ccc3nc(N)nn3c2)c1 [compound 1],IC50,[1]; Experiment 1 (human/mouse 1),22 nM
same,IC50,[1]; Experiment 2 (human/mouse 2),27 nM
same,ratio of the IC50 for PIK3CD and PIK3CG (selectivity window),[1]; in humans,48
same,"Average ratio human mouse, PIK3Cg",[1]; [16],2.61
same,IC50,[2],≥ 3000 nM
same,IC50,[3]; Experiment 1 (human/mouse 1),251 nM
same,IC50,[3]; Experiment 2 (human/mouse 2),162 nM
same,IC50,[4]; Experiment 1 (human/mouse 1),1060 nM
same,IC50,[4]; Experiment 2 (human/mouse 2),1520 nM
same,"Average ratio human mouse, PIK3Cd",[4]; [16],1.0
same,IC50,[5]; Experiment 1 (human/mouse 1),57 nM
same,IC50,[5]; Experiment 2 (human/mouse 2),71 nM
same,IC50 ratio for PIK3CD and PIK3CG (selectivity window),[5]; in mouse,23
same,IC50,[6]; Experiment 1 (human/mouse 1),2370 nM
same,IC50,[6]; Experiment 2 (human/mouse 2),2600 nM
same,"Average ratio human mouse, PIK3Ca",[6]; [16],app. 1
same,IC50,[7]; Experiment 1 (human/mouse 1),≥ 3000 nM
same,IC50,[7]; Experiment 2 (human/mouse 2),≥ 3000 nM
same,IC50,[8]; Experiment 1 (human/mouse 1),136 nM
same,IC50,[8]; Experiment 2 (human/mouse 2),283 nM
same,"Average ratio human mouse, PIK3Cb",[8]; [16],0.87
same,IC50,[9]; Experiment 1 (human/mouse 1),≥ 3000 nM
same,IC50,[9]; Experiment 2 (human/mouse 2),≥ 3000 nM
same,IC50,[10]; Experiment 1 (human/mouse 1),1310 nM
same,IC50,[10]; Experiment 2 (human/mouse 2),1290 nM
same,IC50,[11],≥ 3000 nM
CC(C)(C)NS(=O)(=O)c1cncc(-c2cc(F)c3nc(N)nn3c2)c1 [compound 2],potency for PI3Kγ in mouse compared to human,[12],two- to four-fold lower
same,potency for PI3Kγ in rat compared to human,[13],two- to four-fold lower
same,potency for PI3Kβ in mouse compared to human,[14],two- to four-fold lower
same,potency for PI3Kβ in rat compared to human,[15],two- to four-fold lower
